Test results taken from patent US20210352889A1, “MACROCYCLIC TETRAPYRROLE COMPOUNDS, COMPOSITIONS AND METHODS FOR INCREASING ABIOTIC STRESS RESISTANCE IN PLANTS” (SUNCOR ENERGY INC., priority 2018, published 2021).

What was measured:
Arabidopsis thaliana [1] = assay: Plant senescence triggered by salt stress, visual rating (Example 2); assay type: in vivo; design: key to Ratings at 14 days: 9: Normal growth, no leaf symptoms; 7: Nearly normal growth with some leaves and tips yellow and rolled; 4: Growth severely inhibited, significant yellowing of the leaves with most leaves rolled; 2: Complete growth arrest with most of the leaves dried and some plants dead; conditions: for % improvement: % senescence improvement relative to untreated control, 14 days; for Ratings at 14 days: visual leaf senescence score, salt stress 100, 200, 300 mM NaCl, percentages wt % of total composition
Procedure: In this example, the effect of metalized chlorin compounds and various additives on Arabidopsis thaliana senescence triggered by salt stress was measured by a visual rating scale reflecting progressive leaf senescence symptoms. […] It was also shown that the addition of oil, in particular poly-alpha-olefin (PAO), chelating agents or combinations thereof, further increased the protection. After prolonged exposure to salt stress, Na^+ accumulation in the shoot results in cytotoxic effects, whereby the most visible symptom is yellowing, followed by drying of leaves, due to leaf senescence and death. Leaf senescence may be evaluated by visual scoring reflecting progressive leaf senescence symptoms. [table] […] All percentage values in the Table are in wt % of total composition.

[2] = tested on: white clover (Trifolium repens) seedlings; assay: Primary root length of white clover seedlings under salt stress (Example 3); assay type: in vivo; conditions: porphyrin 0.01% v/v, 7 days after germination, mean ± standard error
Procedure: In this example, the effect of porphyrin compounds on the sensitivity to salt stress of seedlings was evaluated. […] For exposure to salt, the water was adjusted to contain 100 mM NaCl. […] Salt stress tolerance was measured by determining the reduction of primary root length by analysis of pictures with the Image J™ software. Root lengths (mm) were measured 7 days after the germination. The following Table 3 summarizes the results.

Arabidopsis thaliana [3] = assay: Effect of different oil on Arabidopsis senescence under salt stress (Example 24); conditions: in vivo
Procedure: The experimental protocol is the same as that of Example 2. In this example, the effect of metalized chlorin compounds and various oils on Arabidopsis thaliana senescence triggered by salt stress was measured by a visual rating scale reflecting progressive leaf senescence symptoms. […] It was also shown that the addition of oil further increased the protection. After prolonged exposure to salt stress, Na^+ accumulation in the shoot results in cytotoxic effects, whereby the most visible symptom is yellowing, followed by drying of leaves, due to leaf senescence and death. Leaf senescence may be evaluated by visual scoring reflecting progressive leaf senescence symptoms.

Arabidopsis seedlings = assay: Pigment content under photooxidative conditions (Example 6); assay type: in vivo, Arabidopsis thaliana
Procedure: In this example, the effect of chlorin compounds on the pigment content of seedlings grown under photooxidative conditions was evaluated. In particular, the effect of CuChIn on the pigment content of Arabidopsis seedlings grown under photooxidative conditions was evaluated. To do so, the pigments were extracted and quantified. It was shown that CuChIn supplemented plants retained more pigments under this type of stress. […] In this experiment, to determine the effect of CuChIn on the pigment content, seedlings were grown as in Example 1, except that the plants were transferred under LED lights (PAR 142 μmol m^-2 s^-1) one week after germination. 14 days old seedlings were then harvested and weighted. The tissue was ground in liquid nitrogen. […] The pigment concentrations were determined spectrophotometrically and calculated using the following formulas known to those skilled in the art (i.e. Sumanta et al., 2014):Ch-a=16.72A665.2-9.16A652. (for chlorophyll a); Ch-b=34.09[…]=(1000A470-1.63Ca-104.96Cb)/221 (for carotenoids) and […]-(1⁄4×[…]) (for anthocyanins) (A=absorbance). The data is expressed as means±standard error.

[4] = tested on: Tomato cultivar “Tiny Tim”; assay: Tomato plant tolerance to heat stress (Example 19); assay type: in vivo; conditions: for Above ground plant biomass. Dry weight Total shoots / Roots dry weight / Above ground plant biomass, Fresh weight, Total shoots: heat stress 38° C., two foliar applications; for Above ground plant biomass. Dry weight Total shoots: harvest 27 days after first treatment, per plant; for Roots dry weight / Above ground plant biomass, Fresh weight, Total shoots: tomato; for Above ground plant biomass, Fresh weight, Total shoots: 27 days after first treatment; for Roots dry weight, % increase / Total shoots dry weight % increase / Total shoots fresh weight, % increase: vs Heat stress Control
Procedure: In this example, the effects of chlorin compounds and formulations were tested on Tomato cultivar “Tiny Tim” (Stokes seeds, Ontario, Canada). Several experiments were conducted in the greenhouse and Growth Chamber. The tests were designed to determine the activity of compounds on tomato plants tolerance to heat stress. In the experiments, Tomato transplants were grown in 6″ plastic pots filled with professional soil mix to 5-6 leaves stage in the greenhouse at 22° C.-25° C. and 8 h dark/16 h light photoperiod respectively. […] The Tomato plants were treated with two foliar applications of different formulations providing an even coverage (until run-off) using hand hold Spray bottle (Continental E-Z sprayer). Plants were treated with compounds two times with 7 days interval. Twenty four hours after the first foliar spray plants were placed into a Growth chamber and exposed to temperature stress (heat stress) for 10 days. […] After second foliar spray plants were placed for a second time into the Growth chamber and exposed to temperature stress (heat stress) for another 10 days. The Tomato plants were regularly watered to avoid water deficit. The Growth chamber was set at 16 h light/8 h dark photoperiod, illumination at 300 μmol·m^−2 s^−1 during the light photoperiod and 70% relative humidity. Temperature regime in the Growth chamber was set at 25° C. during the dark. […] Plants were moved from the Growth Chamber to the greenhouse and maintained in the greenhouse for four days prior to harvest. Twenty-seven days after the first treatment, plants were harvested, and biomass were recorded. Untreated plants—Heat stress Control was used as a reference for each measurement respectively. The experiments were set out in a completely randomized design with 6 replications for each treatment.

[5] = tested on: Arabidopsis thaliana seedlings; assay: Primary root length of Arabidopsis seedlings under salt stress (Example 1); assay type: in vivo; conditions: for Root length (mm): 10 μM CuChln in media, 10 days after germination, mean ± standard error
Procedure: Experiments were conducted to evaluate the effect of metallized chlorin compounds on salt stress treated seedlings, by measuring of primary root length. Copper chlorophyllin (CuChIn) was supplemented to the media onto which Arabidopsis thaliana seeds germinated. […] For exposure to salt, media was adjusted to contain 100 mM NaCl. For exposure to CuChIn, CuChIn was prepared as a 1 mM stock in water and was added to the media at 10 μM CuChIn final concentration. […] Arabidopsis seedlings were grown vertically at a temperature of 24±1° C., under LED lights (PAR 24 μmol m^−2/s^−1) and 16 hours:8 hours, light:dark photoperiod. Salt stress tolerance was measured by determining the reduction of primary root lengths.

[6] = tested on: tomato plants cv. Tumbling Tom; assay: Tomato plants tolerance to drought stress (Example 9); assay type: in vivo; conditions: Table 9C
Procedure: In this example, the effects of chlorin compounds and formulations were tested on tomato plants cv. Tumbling Tom. The experiments were carried out in a greenhouse. Tests were designed to determine the activity of compounds on tomato plants tolerance to drought stress. In the experiments, tomato plants cv. […] Foliar treatments were applied 3 times with 7 days interval. 5 replications per treatment were used.

[7] = 20 μM CuChln, photooxidative conditions, 14 days old seedlings, mean ± standard error
[8] = foliar spray, vs drought control

Q: With `O=C(O)CC(NCCNC(CC(=O)O)C(=O)O)C(=O)O` (stereo not shown) [5 mM EDDS, ethylenediamine-N,N′-disuccinic acid, reference compound] as the compound, how does the “% improvement” value (Arabidopsis thaliana [1]) read?
A: The value was 14.4%.

Q: What about the “Ratings at 14 days” value (Arabidopsis thaliana [1]) of the same compound?
A: The value was 4.

Q: Which “Root length (mm)” value ([2]; 0 mM NaCl) does the source give for `C=CC1=C(C)c2cc3[nH]c(cc4nc(cc5[nH]c(cc1n2)c(C)c5CCC(=O)O)C(CCC(=O)O)=C4C)c(C)c3C=C` [PP9, protoporphyrin-IX] here?
A: The value was 1.04 ± 0.05 mm.

Q: And the “Root length (mm)” value ([2]; 100 mM NaCl)?
A: The value was 0.7 ± 0.08 mm.

Q: With `C=CC1=C(C)c2cc3[n-]c(cc4[n-]c(cc5nc(cc1n2)C(C)=C5C=C)c(C)c4CCC(=O)O)c(CCC(=O)O)c3C.[Zn+2]` [ZnPP9, zinc protoporphyrin-IX] as the compound, how does the “Root length (mm)” value ([2]; 0 mM NaCl) read?
A: The value was 1.01 ± 0.08 mm.

Q: What about the “Root length (mm)” value ([2]; 100 mM NaCl) of the same compound?
A: The value was 0.8 ± 0.08 mm.

Q: Which results are given for “ethylenediaminetetraacetic acid-Ca [reference compound]”?
A: % improvement (Arabidopsis thaliana [1]): 14.4%; Ratings at 14 days (Arabidopsis thaliana [1]): 4

Q: What does the source list for `O=C([O-])CC(NC(CC(=O)[O-])C(=O)[O-])C(=O)[O-].[Na+].[Na+].[Na+].[Na+]` (stereo not shown) [0.25% Baypure CX100 ™, tetrasodium iminodisuccinate]?
A: % improvement (Arabidopsis thaliana [1]): 14.4%; Ratings at 14 days (Arabidopsis thaliana [1]): 4

Q: How did the “protection against senescence triggered by salt stress” value (Arabidopsis thaliana [3]) turn out when copper chlorophyllin [CuChln] was run?
A: The value was “provided protection against senescence triggered by salt stress”.

Q: What about the “% improvement” value (Arabidopsis thaliana [1]) of the same compound?
A: Its value is 28.7%.

Q: What about the “protection against senescence triggered by salt stress” value (Arabidopsis thaliana [1]; in vivo) of the same compound?
A: The value was “provides protection against plants senescence triggered by salt stress”.

Q: And the “Ratings at 14 days” value (Arabidopsis thaliana [1])?
A: Its value is 4.5.

Q: What about the “Anthocyanins” value (Arabidopsis seedlings; [7]) of the same compound?
A: The value was 0.08 ± 0.05 µg/mL.

Q: What about the “Ch-a” value (Arabidopsis seedlings; [7]) of the same compound?
A: Its value is 6.62 ± 0.8 µg/mL.

Q: And the “Ch-b” value (Arabidopsis seedlings; [7])?
A: Its value is 2.28 ± 0.14 µg/mL.

Q: What about the “Cx + c (carotenoids)” value (Arabidopsis seedlings; [7]) of the same compound?
A: Its value is 1.56 ± 0.25 µg/mL.

Q: And the “pigments retained under photooxidative conditions” value (Arabidopsis seedlings; in vivo)?
A: Its value is “retain more pigments than untreated plants”.

Q: And the “Above ground plant biomass. Dry weight Total shoots” value [4]?
A: The value was 4.92 g.

Q: And the Roots dry weight [4]?
A: The Roots dry weight was 1.17 g/plant−^1.

Q: What about the “Above ground plant biomass, Fresh weight, Total shoots” value [4] of the same compound?
A: The value was 37.17 g/plant^−1.

Q: And the “Roots dry weight, % increase” value [4]?
A: Its value is 26%.

Q: What about the “Total shoots dry weight % increase” value [4] of the same compound?
A: The value was 10%.

Q: And the “Total shoots fresh weight, % increase” value [4]?
A: The value was 11%.

Q: What about the “Root length (mm)” value ([5]; 0 mM NaCl) of the same compound?
A: Its value is 5.05 ± 0.09 mm.

Q: And the “influence on root length in the control experiment” value ([5]; 10 μM CuChIn, no salt)?
A: The value was “did not influence the root length”.

Q: And the “Root length (mm)” value ([5]; 100 mM NaCl)?
A: The value was 3.16 ± 0.14 mm.

Q: And the “salt tolerance vs untreated plants” value ([5]; CuChIn supplemented media)?
A: Its value is “more salt tolerant than untreated plants”.

Q: And the “Shoots Dry weight % increase” value [6, 8]?
A: Its value is 4%.

Q: What about the “Shoots Fr. weight % increase” value [6, 8] of the same compound?
A: Its value is 29.6%.

Q: And the “Plant vigor Score 1-5” value ([6]; prolonged drought, foliar spray 3 times)?
A: The value was 4.6.

Q: What about the “Shoots Fr. weight” value ([6]; prolonged drought, foliar spray 3 times with 7 days interval, Rate, %: CuChln 0.1, PAO488 + CuChln 0.5 + 0.1) of the same compound?
A: The value was 8.7 g.

Q: And the “Shoots Dry weight” value ([6]; prolonged drought, foliar spray 3 times, Rate, %: CuChln 0.1, PAO488 + CuChln 0.5 + 0.1)?
A: The value was 0.84 g.

Q: With `O=C([O-])CN(CCN(CC(=O)[O-])CC(=O)[O-])CC(=O)[O-].[Ca+2].[Ca+2]` [0.05% Ca2EDTA, reference compound] as the compound, how does the “Above ground plant biomass. Dry weight Total shoots” value [4] read?
A: Its value is 4.72 g.

Q: What about the Roots dry weight [4] of the same compound?
A: The Roots dry weight was 1.07 g/plant−^1.

Q: What about the “Above ground plant biomass, Fresh weight, Total shoots” value [4] of the same compound?
A: Its value is 34.62 g/plant^−1.

Q: What about the “Roots dry weight, % increase” value [4] of the same compound?
A: Its value is 15%.

Q: What about the “Total shoots dry weight % increase” value [4] of the same compound?
A: The value was 6%.

Q: What about the “Total shoots fresh weight, % increase” value [4] of the same compound?
A: Its value is 3%.
